Data published in patent US8017646B2, “Histamine H3-receptor ligands and their therapeutic application” (Bioprojet, priority 2005, dated 2011).
Structures can show the parent of a compound that is named as a salt. Where two headings read alike, the source gives them in different places.

What was measured:
CYP2D6 = CYP2D6 (Homo sapiens, UniProt P10635); assay: Cytochrome inhibition, fluorometric assay, CYP2D6; type: biochemical
Procedure: (§1) The ability of drug in human to inhibit the catalytic activity of cytochrome P-450 isoforms was assayed using microtiter plate-based, fluorometric assays for the activities of the five human major CYP forms. Inhibition potential was determined in vitro after incubation of fluorescent model substrates over various incubation time with human recombinant cytochrome isoforms in the absence or in presence of increasing concentrations of test molecules (from 1 nM to 100 μM), in comparison with specific CYP isoform inhibitors. Data were expressed as quantitative inhibition parameters [inhibitor concentration that produces 50% inhibition (IC50 value)].
Incubation of drug was carried out at 37° C.±0.5° C. under agitation in the presence of human recombinant cytochrome P-450 isoforms and a NADPH generating system. The incubation conditions for each cytochrome isoform were as follow: […]

CYP3A4 = CYP3A4 (Homo sapiens, UniProt P08684); assay: Cytochrome inhibition, fluorometric assay, CYP3A4; type: biochemical; conditions: human recombinant CYP3A4, substrate BFC; read-out: cytochrome inhibition (IC50, concentrations for 50% inhibition) CYP3A4
CYP3A4, sequence (P08684 whole entry, canonical isoform): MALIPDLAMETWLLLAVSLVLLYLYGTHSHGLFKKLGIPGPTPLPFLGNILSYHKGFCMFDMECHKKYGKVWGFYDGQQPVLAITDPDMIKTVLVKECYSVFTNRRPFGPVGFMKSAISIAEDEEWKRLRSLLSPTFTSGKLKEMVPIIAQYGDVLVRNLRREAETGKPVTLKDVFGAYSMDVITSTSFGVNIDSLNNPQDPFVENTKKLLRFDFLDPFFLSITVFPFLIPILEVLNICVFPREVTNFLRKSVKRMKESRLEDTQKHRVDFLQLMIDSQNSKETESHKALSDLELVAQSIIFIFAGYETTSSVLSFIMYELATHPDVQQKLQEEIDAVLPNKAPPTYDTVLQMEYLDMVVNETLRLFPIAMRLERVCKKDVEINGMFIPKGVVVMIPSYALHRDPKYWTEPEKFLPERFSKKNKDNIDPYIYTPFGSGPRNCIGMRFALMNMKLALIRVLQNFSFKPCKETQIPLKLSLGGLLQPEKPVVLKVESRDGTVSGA
Procedure: as §1, with “value)]. Incubation of drug was carried out at 37° C.±0.5° C. under agitation in the presence of human recombinant cytochrome P-450 isoforms and a NADPH generating system. The incubation conditions for each cytochrome isoform were as follow: [table]” for “value)].”

[1] = target: human histamine H3 receptors (Homo sapiens, UniProt Q9Y5N1); assay: H3 binding ([125I]iodoproxyfan displacement); conditions: for Ki: membranes expressing human histamine H3 receptors, [125I]iodoproxyfan
human histamine H3 receptors, sequence (Q9Y5N1 whole entry): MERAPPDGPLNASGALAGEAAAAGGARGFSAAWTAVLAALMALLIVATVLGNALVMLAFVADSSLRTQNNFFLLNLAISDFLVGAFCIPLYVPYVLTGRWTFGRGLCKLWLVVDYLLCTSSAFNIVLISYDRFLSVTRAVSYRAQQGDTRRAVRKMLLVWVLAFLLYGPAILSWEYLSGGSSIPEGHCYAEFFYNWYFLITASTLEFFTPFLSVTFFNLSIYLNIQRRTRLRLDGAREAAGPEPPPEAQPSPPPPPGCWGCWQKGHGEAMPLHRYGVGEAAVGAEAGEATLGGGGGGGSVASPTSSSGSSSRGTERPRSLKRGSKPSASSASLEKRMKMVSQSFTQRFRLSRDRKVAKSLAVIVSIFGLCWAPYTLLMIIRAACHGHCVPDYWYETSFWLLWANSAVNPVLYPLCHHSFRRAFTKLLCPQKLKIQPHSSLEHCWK
Procedure: Membranes expressing human histamine H3 receptors were incubated 1 hour at room temperature in binding buffer containing 50 mM Na2HPO4/KH2PO4 pH 7.5 in a final volume of 200 μl. […] Amersham Pharmacia Biotech) concentrations ranged between 20 and 40 pM. Non-specific binding was determined in the presence of 1 μM Imetit. The reaction was stopped by rapid filtration through GF/B filters (pre-soaked for 2 hours with 0.3% polyethyleneimine) followed by 3 ice cold binding buffer washes. The filter-bound radioactivity was measured in a liquid scintillation counter with 50 μl of scintillation fluid.

[2] = human recombinant CYP2D6, substrate AMMC, read-out: cytochrome inhibition (IC50, concentrations for 50% inhibition) CYP2D6

CYP2D6, sequence (P10635 whole entry, canonical isoform): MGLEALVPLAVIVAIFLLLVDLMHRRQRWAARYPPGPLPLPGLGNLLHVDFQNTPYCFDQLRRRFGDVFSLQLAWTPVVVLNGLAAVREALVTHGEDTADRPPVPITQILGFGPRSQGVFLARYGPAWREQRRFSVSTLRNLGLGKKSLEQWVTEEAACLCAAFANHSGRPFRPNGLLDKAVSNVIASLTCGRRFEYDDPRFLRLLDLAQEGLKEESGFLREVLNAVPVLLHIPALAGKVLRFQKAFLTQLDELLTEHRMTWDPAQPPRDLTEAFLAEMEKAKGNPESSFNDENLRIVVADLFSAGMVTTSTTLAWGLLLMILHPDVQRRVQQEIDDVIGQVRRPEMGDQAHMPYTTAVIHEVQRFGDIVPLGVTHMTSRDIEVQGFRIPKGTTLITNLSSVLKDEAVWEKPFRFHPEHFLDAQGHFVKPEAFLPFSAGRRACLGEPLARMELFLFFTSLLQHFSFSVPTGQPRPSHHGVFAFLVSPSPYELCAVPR

Structure (SMILES) | IC50 (CYP2D6; [2]) | IC50 (CYP3A4) | melting point | Ki [1] | IC50 (CYP2D6; comparative compound disclosed in WO 00/06254, read-out: cytochrome inhibition (IC50) CYP2D6) | Kd ([1]; radioligand at human H3 receptor membranes, read-out: Kd (hH3 binding))
COc1ccc(/C=C/COCCCN2CCCCC2)cc1OC.O=C(O)C(=O)O [Example 2, trans-1-{3-[3-(3,4-dimethoxyphenyl)allyloxy]propyl}piperidine, oxalate] | > 10 µM | > 10 µM | 111 to 112 °C |  |  | 
Fc1ccc(CCCOCCCN2CCCC2)cc1.O=C(O)C(=O)O [Example 7, 1-{3-[3-(4-fluorophenyl)propoxy]propyl}pyrrolidine, oxalate] | 81 µM | > 100 µM | 106 °C |  |  | 
C(=C\c1ccc2occc2c1)/COCCCN1CCCC1 [Example 12, trans-1-{3-[3-(benzofuran-5-yl)allyloxy]propyl}pyrrolidine, oxalate] | > 1 µM | > 10 µM |  |  |  | 
C(=C\c1ccc2c(c1)OCCO2)/COCCCN1CCCCC1.O=C(O)C(=O)O [Example 13, 1-{3-[3-(2,3-dihydrobenzo[1,4]dioxin-6-yl)allyl]oxy}propyl)piperidine, oxalate] | > 10 µM | > 10 µM |  |  |  | 
C(=C\c1ccc2c(c1)OCCO2)/COCCCN1CCCCC1.O=C(O)C(=O)O [Example 13] |  |  | 120 °C |  |  | 
C(=C\c1ccc2c(c1)OCO2)/COCCCN1CCCC1 [Example 14, trans-1-{3-[3-(benzodioxol-5-yl)allyloxy]propyl}pyrrolidine, oxalate] | 4.4 µM | 10.6 µM |  | 0.0047 µM |  | 
Ic1ccc(COCCCc2cnc[nH]2)cc1 [[^125]iodoproxyfan, reference compound] |  |  |  |  |  | 0.078 ± 0.006 nM

Continued, in another order:

IC50 (CYP2D6; [2]) | IC50 (CYP3A4) | melting point | Ki [1] | IC50 (CYP2D6; comparative compound disclosed in WO 00/06254, read-out: cytochrome inhibition (IC50) CYP2D6) | Structure (SMILES) | Kd ([1]; radioligand at human H3 receptor membranes, read-out: Kd (hH3 binding))
> 10 µM | > 10 µM |  |  |  | COc1ccc(CCCOCCCN2CCCC2)cc1OC [Example 1, 1-{3-[3-(3,4-dimethoxyphenyl)propoxy]propyl}pyrrolidine, oxalate] | 
> 10 µM | > 10 µM |  |  |  | COc1ccc(CCCOCCCN2CCCCC2)cc1OC [Example 3, 1-{3-[3-(3,4-dimethoxyphenyl)propoxy]propyl}piperidine, oxalate] | 
> 10 µM | > 10 µM |  |  |  | Cc1ccc(CCCOCCCN2CCCCC2)cc1 [Example 4, 1-{3-[3-(4-methylphenyl)propoxy]propyl}piperidine, oxalate] | 
> 1 µM | > 10 µM |  |  |  | c1ccc2cc(CCCOCCCN3CCCCC3)ccc2c1 [Example 5, 1-{3-[3-(2-naphtyl)propoxy]propyl}piperidine, oxalate] | 
> 1 µM | > 10 µM |  |  |  | COc1cc(CCCOCCCN2CCCCC2)ccc1O [Example 6, 1-{3-[3-(4-hydroxy-3-methoxyphenyl)propoxy]propyl}piperidine, oxalate] | 
> 1 µM | > 10 µM |  |  |  | COc1cc(/C=C/COCCCN2CCCC2)ccc1F [Example 8, trans-1-{3-[3-(4-fluoro-3-methoxyphenyl)allyloxy]propyl}pyrrolidine, oxalate] | 
> 100 µM | > 100 µM |  | 0.0017 µM |  | COc1cc(CCCOCCCN2CCCC2)ccc1F [Example 9, 1-{3-[3-(4-fluoro-3-methoxyphenyl)propoxy]propyl}pyrrolidine, oxalate] | 
> 1 µM | > 10 µM |  |  |  | Cc1cc(CCCOCCCN2CCCC2)ccc1F [Example 10, 1-{3-[3-(4-fluoro-3-methylphenyl)propoxy]propyl}pyrrolidine, oxalate] | 
18 µM | 23 µM |  | 0.00038 µM |  | COc1cc(F)ccc1CCCOCCCN1CCCC1 [Example 11, 1-{3-[3-(4-fluoro-2-methoxyphenyl)propoxy]propyl}pyrrolidine, oxalate] | 
 |  |  |  | 0.059 µM | Clc1ccc(CCCOCCCN2CCCCC2)cc1 [reference compound] | 
